The record followed here is patent publication US20100112012A1, “MODULATION OF IMMUNE RESPONSES” (CLEVELAND CLINIC FOUNDATION, priority 2005, published 2010).

“Also recorded” adds a separate entry of the source. Read-outs that look alike come from different tables or passages of the source.

For data set [1], the system named is antigen-presenting dendritic cells. The experiment in a line: Flow cytometry of CD11c+/FITC+ dendritic cells in skin draining lymph nodes. Type of data set: in vivo, BALB/c mice. As to conditions: day +2. Here is the method:
LNC were obtained from hapten-sensitized mice on day +2 post-sensitization. To prevent non-specific antibody binding cells were incubated with rat serum (Rockland, Gilbertsville, Pa.) diluted 1:1000 in staining buffer (Dulbecco's PBS with 2% FCS/0.02% NaN3) for 20 min on ice. Then cells were washed and stained with PE-labeled anti-CD11c mAb to detect DC. Stained cells were washed five times, resuspended in staining buffer and analyzed by two-color flow cytometry using a FACScan (Becton Dickinson, San Jose, Calif.).
To detect Langerhans cells in the lymph nodes LNC were obtained 48 h after sensitization with 1% FITC and were stained with PE-labeled anti-CD11c mAb and then analyzed by two-color flow cytometry.
For orientation: In flow cytometry, cells or beads pass a laser one at a time.

For data set [2], the system named is MHC-mismatched heart grafts. As to conditions: quinacrine on days −2, −1, +5, +14, +16; for survival of heart allografts: A/J donors to C57BL/6.
Experimental: Heterotopic cardiac transplants were performed using microsurgical techniques. Briefly, donor hearts were harvested and placed in chilled Ringer's solution while the recipient mice were prepared. […] Upon completion of the anastomoses and organ reperfusion, the heart grafts resumed spontaneous contraction. The strength and quality of cardiac graft impulses were monitored each day by palpation of the abdomen. Rejection of cardiac grafts was considered complete by cessation of impulse and was confirmed visually for each graft by laparotomy.
For another data set, the system named is NF-κB. Put plainly: NF-κB-dependent reporter in H1299-NF-kBLuc cells. It is filed as cell-based, human. The settings on record: TNF 10 ng/ml. Here is the method: (§1) Transient transfections. 2×10^5 cells were plated into 6-well plates and, after overnight incubation, transfected with Lipofectamin Plus reagent (Gibco BRL) with 0.5 μg of reporter plasmids (p21-ConALuc or pNF-κBLuc) in combination with different concentrations of plasmids expressing p53, Arf, Ss-IκB, or siHDM2. Corresponding empty vectors were added in all transfections up to 2 μg of total DNA. Normalization of transfection efficiency was done by adding 0.2 μg of pCMV-LacZ plasmid. Luciferase activity and β-galactosidase activity were measured in lysates prepared 48 hours after transfection with Cell Lysis Buffer (Promega) by the luciferase assay system (Promega) or β-galactosidase enzyme system (Promega). Luminometric and colorimetric reactions were read on the Wallack 1420 plate reader (Perkin Elmer). Stable transduction of reporters. 2×10^4 cells with integrated reporter were plated in 96-well plates. After overnight incubation, chemicals or media from lentivirus-producing cells were added. At different times, cell lysates were prepared using Reporter Lysis Buffer (Promega). Luciferase or β-galactosidase activity and protein concentration were measured in aliquots of cell lysates using standard kits (Promega, Luciferase and β-galactosidase assay systems, Biorad Protein Assay Kit).

Data set [3] deals with p53. Put plainly: Phosphorylation status of p53 (Western analysis). Type of data set: cell-based, human. The settings on record: RCC45 cells, 9AA 5 μM, 16 h. Here is the method:
(§2) Cells were lysed in RIPA buffer (25 mM Tris HCl, pH 7.2, 125 mM NaCl, 1% NP40, 1% sodium deoxycholate, 1 mM EDTA) containing 1 mM PMSF (Sigma), 10 ug/ml of aprotinin (Sigma) and 10 ug/ml of leupeptin (Sigma). Protein concentrations were determined with the BioRad Dc protein assay kit. Equal protein amounts were run on gradient 4-20% precast gels (Novex) and blotted onto PVDF membranes (Amersham). The following antibodies were used: anti-p53—monoclonal mouse DO1 (Santa-Cruz), anti-p21—monoclonal mouse F-5 (Santa-Cruz), anti-mdm2—monoclonal mouse SMP14 (Santa-Cruz), anti-p65—(C20, Santa Cruz), anti-phospho-p65—(ser536, Cell Signaling), anti-IκBa—(C21, Santa Cruz), anti-p50—(NLS, Santa Cruz), anti-IKK1 (Cell Signaling), anti-γH2X (Cell Signaling), anti-actin (Santa Cruz). p53 phosphorylation status was analyzed using the phospho-p53 sampler kit from Cell Signaling according to the manufacturer's recommendations. HRP-conjugated secondary antibodies were purchased from Santa Cruz. Quantitation of the data was performed using Quantity One software from BioRad.

For a further data set, the system named is ACHN cells. The experiment in a line: Experimental chemotherapy of tumor xenografts. As to conditions: 5-fluorouracil 35 mg/kg. It is filed as in vivo, nude mice. The protocol:
NIH Swiss athymic nude, male mice, 5-6 weeks old, were purchased from Harlan. 5×10^6 tumor cells were inoculated into the flanks of mice in 100 μL of PBS. When tumors reached 5 mm in diameter, intraperitoneal injections of drugs were started in 100 μL of a solution of 50% DMSO in PBS (except for quinacrine, which was dissolved in PBS). As vehicle, 50% DMSO solution in PBS was used. Tumor size was measured in three dimensions every other day.

The next data set concerns histone H2A.X. The experiment in a line: Immunofluorescent detection of phosphorylated histone H2A.X. As to conditions: HT1080 cells, 10 μM. It is filed as cell-based, human. An excerpt:
All washings were done with blocking solution.

The test system of data set [4] is p53. Put plainly: Screening for p53-activating compounds, p53-responsive reporter in RCC45ConALacZ cells. It is filed as cell-based, human. Here is the method:
as §1
The DiverSet library of 34,000 chemical compounds and focused libraries of structural analogues of selected hits were provided by Chembridge, Calif. Cell lines with p53- or NF-κB-responsive luciferase or β-galactosidase reporters were described previously (5, 7). For screening chemicals, 2×10^4 RCC45ConALacZ cells (RCC45-based p53 reporter cells) were plated per well of 96-well plates in 200 μL of phenol-red-free RPMI medium with standard additions. After overnight incubation, the compounds were added to final concentrations of 5-15 μM (0.2 μL of compound in DMSO per well). […] After 24 h, lysis buffer with ortho-nitrophenyl-β-D-galactopyranoside (ONPG) was added and β-galactosidase activity was estimated colorimetrically by a multiwell plate reader.

The test system of another data set is ovalbumin-specific IgG. Put plainly: Ovalbumin immunization, ovalbumin-specific IgG titers by ELISA. The settings on record: ovalbumin 100 ug i.p. days 0 and 7; quinacrine 80 mg/kg days 1, 2, 8 and 9; serum day 14. Type of data set: in vivo, BALB/c mice. (In general: In an ELISA, binding on a coated surface is turned into a signal by an enzyme label.)
In the next data set the test system is IκBα. The experiment in a line: IκBα level (Western analysis). Type of data set: cell-based, human. As to conditions: TNF 10 ng/ml, 9AA 10 μM. The protocol: as §2
Data set [5] relates to p53. Put plainly: p53 reporter in organ cultures of human RCC tumor samples. It is filed as cell-based. As to conditions: 12 hours. The protocol:
FIG. 11. QC can activate p53 transactivation in organ cultures of human RCC tumor samples. Fresh surgically removed samples of tumor and adjacent normal kidney were cut into small pieces and put into media containing ConALacZ virus (5×10^7 TU/ml) with […] of polybrene for 4 hours. 24 hours after infection, tissue pieces (at least three per treatment) were incubated with media containing quinacrine or doxorubicin for 12 hours. Then the tissues were fixed for 30 min in PBS containing 0.5% glutaraldehyde and 1 mM MgCl2. Pieces of tumor were stained in PBS solution containing X-gal (1 mM MgCl2, 3.3 mM K4Fe(CN)6, 3.3 mM K3Fe(CN)6, 0.02% NP40, 0.2% X-gal) overnight at 37° C. Stained specimens were analyzed microscopically by squeezing pieces of tumor and normal tissues between two glass slides.

Take `CCN(CC)CCCC(C)Nc1c2ccc(Cl)cc2nc2ccc(OC)cc12` (stereo not shown) [QC, quinacrine]: the “numbers of antigen-presenting dendritic cells in the skin draining lymph nodes” value in data set [1] (quinacrine on days 0 and +1 (during 1% FITC sensitization)) is reported as “increased numbers of antigen-presenting dendritic cells”; in data set [1] (quinacrine on days −2 and −1 (prior to 1% FITC sensitization)), “decreased numbers of antigen-presenting dendritic cells”. Also, the “survival of heart allografts” value is “extended the survival of all grafts” in data set [2] (listed as Quinacrine) and “significant prolongation of allograft survival” in [2] (listed as quinacrine). In data set [2] (groups of 5), the “rejection of heart allografts” value is “absence of rejection in one of the allografts”. Moreover, the “basal and TNF-induced NF-κB reporter activities” value in the data set on NF-κB (H1299-NF-kB-Luc cells) is “strong dose-dependent suppression; also recorded: capable of inhibiting both basal and TNF-induced activities of NF-κB”. The “timing of addition relative to TNF needed to inhibit NF-κB” value in the data set on NF-κB (H1299-NF-κBLuc cells) is given as “can inhibit NF-κB when added before, simultaneously with or after TNF stimulation”. Also, the “phosphorylation of p53” value with p53 [3] was “did not induce the phosphorylation of p53”. Further, the “growth of tumor xenografts” value in the data set with ACHN cells (ACHN cells subcutaneous in nude mice, QC 50 mg/kg intraperitoneal) is listed as “inhibited the growth of tumor xenografts; also recorded: same antitumor effect as 5-fluorouracil”. Also, the weight loss result with ACHN cells (ACHN xenograft nude mice, QC 50 mg/kg) was “without the significant weight loss”. Further, the “phosphorylation of histone H2A.X” value in the data set with histone H2A.X is recorded as “Neither 9AA nor QC induced phosphorylation of histone H2A.X”. For the same compound, the “activation of the p53-dependent reporter (p53 transactivation) in RCC” value in the data set on p53 [4] is on record as “effective inducer of p53 transactivation in RCC”. Moreover, the “increase of antigen-specific titers of IgG” value in the data set with ovalbumin-specific IgG turned out to be 4 fold. For the same compound, the “TNF-stimulated induction of IκBα” value in the data set on IκBα is on record as “blocked”. Further, in the data set on p53 [5] (organ cultures of adjacent normal kidney), the “p53-responsive reporter induction in normal kidney samples” value is “no reporter induction”. In the data set on p53 [5] (organ cultures of human RCC), the “expression of a p53-responsive reporter in tumor samples” value is “can be also detected in short-term organ cultures; also recorded: induced expression of a p53-responsive reporter in tumor samples”.
